Measurements as given in patent US12492188B2, “1H-benzo[D]imidazole derivatives as TLR9 inhibitors for the treatment of fibrosis” (BRISTOL-MYERS SQUIBB COMPANY, priority 2020, dated 2025).
Where two headings read alike, the source gives them in different places.

Experiments:
Type in all cases: cell-based
[1] = target: T1, human TLR9 (Homo sapiens, UniProt Q9NR96); assay: TLR9 inhibition reporter assay (HEK-Blue cells, secreted embryonic alkaline phosphatase reporter)
T1 construct: host or cells: HEK-Blue cells (HEK293-derived reporter line)
T1 sequence (Q9NR96 26-1032): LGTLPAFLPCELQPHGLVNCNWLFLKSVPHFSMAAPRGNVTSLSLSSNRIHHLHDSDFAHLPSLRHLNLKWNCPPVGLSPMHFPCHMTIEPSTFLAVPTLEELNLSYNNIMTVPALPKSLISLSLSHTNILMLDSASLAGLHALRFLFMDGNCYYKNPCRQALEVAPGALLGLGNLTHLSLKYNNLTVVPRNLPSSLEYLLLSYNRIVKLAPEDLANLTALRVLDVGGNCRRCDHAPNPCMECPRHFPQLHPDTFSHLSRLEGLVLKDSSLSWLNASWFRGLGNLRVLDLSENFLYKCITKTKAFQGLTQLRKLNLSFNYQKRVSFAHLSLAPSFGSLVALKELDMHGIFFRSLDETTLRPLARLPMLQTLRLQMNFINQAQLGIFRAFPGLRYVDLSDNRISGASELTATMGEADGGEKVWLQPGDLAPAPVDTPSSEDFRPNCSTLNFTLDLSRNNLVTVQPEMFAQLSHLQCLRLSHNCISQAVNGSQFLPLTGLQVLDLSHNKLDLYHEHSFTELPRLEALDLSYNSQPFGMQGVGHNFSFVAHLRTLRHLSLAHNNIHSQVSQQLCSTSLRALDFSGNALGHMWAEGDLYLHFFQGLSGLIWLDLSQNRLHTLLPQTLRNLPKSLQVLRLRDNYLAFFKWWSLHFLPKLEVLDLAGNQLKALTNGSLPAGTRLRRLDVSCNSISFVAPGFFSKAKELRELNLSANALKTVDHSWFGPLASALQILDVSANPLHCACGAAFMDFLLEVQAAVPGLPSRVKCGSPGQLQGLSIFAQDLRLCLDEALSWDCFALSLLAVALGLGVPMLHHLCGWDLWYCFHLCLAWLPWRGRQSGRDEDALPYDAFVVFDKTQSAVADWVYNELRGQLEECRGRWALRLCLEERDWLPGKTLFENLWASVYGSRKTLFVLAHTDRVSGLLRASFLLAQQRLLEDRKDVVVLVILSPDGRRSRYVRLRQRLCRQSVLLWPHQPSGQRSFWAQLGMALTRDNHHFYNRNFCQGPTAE
Summary of the method: (§1)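 Agonist-driven SEAP output was measured in HEK-Blue reporter cells carrying human TLR7 (gardiquimod 7.5 μM), TLR8 (R848 15.9 μM) or TLR9 (ODN2006 5 nM). Compounds at 0.05 nM–50 μM final were added 30 min before stimulation at room temperature. After 22 h at 37 °C, percent inhibition was taken against agonist/DMSO wells and a reference inhibitor.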

[2] = target: T2, human TLR7 (Homo sapiens, UniProt Q9NYK1); assay: TLR7 inhibition reporter assay (HEK-Blue cells, secreted embryonic alkaline phosphatase reporter); conditions: HEK-Blue cells overexpressing human TLR7, stimulated with gardiquimod 7.5 μM; read-out: TLR 7 IC50
T2 construct: host or cells: HEK-Blue cells (HEK293-derived reporter line)
T2 sequence (Q9NYK1 27-1049): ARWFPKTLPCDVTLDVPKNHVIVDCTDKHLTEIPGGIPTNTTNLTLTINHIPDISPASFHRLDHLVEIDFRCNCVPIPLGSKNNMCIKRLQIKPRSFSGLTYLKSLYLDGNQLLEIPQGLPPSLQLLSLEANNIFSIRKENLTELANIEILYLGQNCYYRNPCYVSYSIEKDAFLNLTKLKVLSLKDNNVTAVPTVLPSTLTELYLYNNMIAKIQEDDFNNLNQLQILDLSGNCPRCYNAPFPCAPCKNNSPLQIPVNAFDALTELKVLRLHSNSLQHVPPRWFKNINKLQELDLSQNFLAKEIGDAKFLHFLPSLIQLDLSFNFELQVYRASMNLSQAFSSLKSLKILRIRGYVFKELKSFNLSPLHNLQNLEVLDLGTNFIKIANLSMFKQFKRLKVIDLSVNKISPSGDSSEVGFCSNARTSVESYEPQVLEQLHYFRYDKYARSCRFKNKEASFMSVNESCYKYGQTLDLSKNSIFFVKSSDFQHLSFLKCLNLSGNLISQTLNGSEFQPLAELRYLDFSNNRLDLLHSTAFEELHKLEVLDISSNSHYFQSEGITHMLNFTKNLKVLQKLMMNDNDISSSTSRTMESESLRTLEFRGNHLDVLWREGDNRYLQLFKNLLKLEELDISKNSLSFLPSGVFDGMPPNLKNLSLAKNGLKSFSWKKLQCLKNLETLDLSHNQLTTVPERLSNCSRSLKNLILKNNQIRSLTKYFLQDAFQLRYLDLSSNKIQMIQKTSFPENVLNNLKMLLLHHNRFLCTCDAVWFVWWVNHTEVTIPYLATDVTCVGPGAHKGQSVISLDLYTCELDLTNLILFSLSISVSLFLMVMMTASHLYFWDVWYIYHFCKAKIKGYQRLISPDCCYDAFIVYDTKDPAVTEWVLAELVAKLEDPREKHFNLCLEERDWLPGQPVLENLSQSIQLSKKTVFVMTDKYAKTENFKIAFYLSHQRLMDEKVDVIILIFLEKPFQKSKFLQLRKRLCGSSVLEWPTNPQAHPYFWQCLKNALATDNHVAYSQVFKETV
Summary of the method: as §1

[3] = target: T3, human TLR8 (Homo sapiens, UniProt Q9NR97); assay: TLR8 inhibition reporter assay (HEK-Blue cells, secreted embryonic alkaline phosphatase reporter); conditions: HEK-Blue cells overexpressing human TLR8, stimulated with R848 15.9 μM; read-out: TLR 8 IC50
T3 construct: host or cells: HEK-Blue cells (HEK293-derived reporter line)
T3 sequence (Q9NR97 27-1041): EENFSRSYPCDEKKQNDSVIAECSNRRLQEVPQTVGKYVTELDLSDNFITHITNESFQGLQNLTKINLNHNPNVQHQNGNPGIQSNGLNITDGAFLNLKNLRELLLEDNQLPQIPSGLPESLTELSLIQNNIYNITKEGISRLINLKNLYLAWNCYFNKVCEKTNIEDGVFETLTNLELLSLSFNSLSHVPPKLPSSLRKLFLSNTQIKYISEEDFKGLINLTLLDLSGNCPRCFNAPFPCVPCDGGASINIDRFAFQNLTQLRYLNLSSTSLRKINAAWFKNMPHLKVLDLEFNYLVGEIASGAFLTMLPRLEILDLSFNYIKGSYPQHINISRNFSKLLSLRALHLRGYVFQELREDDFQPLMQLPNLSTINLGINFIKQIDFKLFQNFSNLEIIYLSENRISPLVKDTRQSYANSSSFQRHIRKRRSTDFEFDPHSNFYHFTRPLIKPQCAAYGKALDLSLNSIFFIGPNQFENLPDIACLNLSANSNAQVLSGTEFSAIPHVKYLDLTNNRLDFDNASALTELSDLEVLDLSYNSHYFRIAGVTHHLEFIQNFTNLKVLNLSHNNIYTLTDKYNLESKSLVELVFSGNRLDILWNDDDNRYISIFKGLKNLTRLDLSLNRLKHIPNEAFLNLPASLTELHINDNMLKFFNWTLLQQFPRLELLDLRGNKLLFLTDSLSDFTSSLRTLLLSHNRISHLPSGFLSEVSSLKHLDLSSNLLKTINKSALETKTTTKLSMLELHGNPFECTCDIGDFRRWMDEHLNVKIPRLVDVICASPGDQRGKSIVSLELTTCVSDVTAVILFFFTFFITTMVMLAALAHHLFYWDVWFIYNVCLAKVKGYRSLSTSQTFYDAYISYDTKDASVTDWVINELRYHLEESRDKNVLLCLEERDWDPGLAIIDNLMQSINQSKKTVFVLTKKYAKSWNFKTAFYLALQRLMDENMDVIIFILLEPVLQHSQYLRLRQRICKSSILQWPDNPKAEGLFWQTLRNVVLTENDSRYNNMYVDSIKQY
Summary of the method: as §1

[4] = HEK-Blue cells overexpressing human TLR9, stimulated with ODN2006 5 nM, read-out: TLR 9 IC50

SMILES | IC50 [1] [nM] | IC50 [1, 4] [nM] | IC50 [2] [nM] | IC50 [3] [nM]
Cn1c(-c2ccc(S(C)(=O)=O)cc2)nc2cc(C3CCN(C4CCN(C5CCOCC5)CC4)CC3)c(F)cc21 [Example 245, 6-fluoro-1-methyl-2-(4-(methylsulfonyl)phenyl)-5-(1′-(tetrahydro-2H-pyran-4-yl)-[1,4′-bipiperidin]-4-yl)-1H-benzo[d]imidazole] | 1100 | 1060 | > 50000 | > 50000
COCCN1CCC(N2CCC(c3cc4nc(-c5ccc(S(C)(=O)=O)cc5)n(C)c4cc3F)CC2)CC1 [Example 246, 6-fluoro-5-(1′-(2-methoxyethyl)-[1,4′-bipiperidin]-4-yl)-1-methyl-2-(4-(methylsulfonyl)phenyl)-1H-benzo[d]imidazole] | 400 | 398 | 26200 | > 50000
Cn1c(-c2ccc(S(C)(=O)=O)cc2)nc2cc(C3CCN(C4CC5CCC(C4)N5C4CCC4)CC3)c(F)cc21 (stereo not drawn) [Example 251, 5-(1-(8-cyclobutyl-8-azabicyclo[3.2.1]octan-3-yl)piperidin-4-yl)-6-fluoro-1-methyl-2-(4-(methylsulfonyl)phenyl)-1H-benzo[d]imidazole] | 71 | 71 | 19500 | > 50000
CC(C)CN1CCC(N2CCC(c3ccc4nc(-c5ccc(S(C)(=O)=O)cc5)n(C)c4c3F)CC2)CC1 [Example 259, 7-fluoro-6-(1′-isobutyl-[1,4′-bipiperidin]-4-yl)-1-methyl-2-(4-(methylsulfonyl)phenyl)-1H-benzo[d]imidazole] | 500 | 500 | > 50000 | > 50000
Cn1c(-c2ccc(S(C)(=O)=O)cc2)nc2ccc(C3CCN(C4CCN(C5CC5)CC4)CC3)c(F)c21 [Example 260, 6-(1′-cyclopropyl-[1,4′-bipiperidin]-4-yl)-7-fluoro-1-methyl-2-(4-(methylsulfonyl)phenyl)-1H-benzo[d]imidazole] | 660 | 660 | 21500 | > 50000
Cn1c(-c2ccc(S(C)(=O)=O)cc2)nc2ccc(C3CCN(C4CCN(CC5CC5)CC4)CC3)c(F)c21 [Example 261, 6-(1′-(cyclopropylmethyl)-[1,4′-bipiperidin]-4-yl)-7-fluoro-1-methyl-2-(4-(methylsulfonyl)phenyl)-1H-benzo[d]imidazole] | 150 | 154 | 7900 | > 50000
Cn1c(-c2ccc(S(C)(=O)=O)cc2)nc2ccc(C3CCN(C4CCN(C5CCC5)CC4)CC3)c(F)c21 [Example 262, 6-(1′-cyclobutyl-[1,4′-bipiperidin]-4-yl)-7-fluoro-1-methyl-2-(4-(methylsulfonyl)phenyl)-1H-benzo[d]imidazole] | 170 | 171 | 14100 | > 50000
Cn1c(-c2ccc(S(C)(=O)=O)cc2)nc2ccc(C3CCN(C4CCN(C5CCOCC5)CC4)CC3)c(F)c21 [Example 264, 7-fluoro-1-methyl-2-(4-(methylsulfonyl)phenyl)-6-(1′-(tetrahydro-2H-pyran-4-yl)-[1,4′-bipiperidin]-4-yl)-1H-benzo[d]imidazole] | 280 | 281 | 2300 | 20700

Now from value to molecule:

IC50 [1] [nM] | IC50 [1, 4] [nM] | IC50 [2] [nM] | IC50 [3] [nM] | SMILES
30 | 30 | 21100 | > 50000 | CC(C)CN1C2CCC1CC(N1CCC(c3cc4nc(-c5ccc(S(C)(=O)=O)cc5)n(C)c4cc3F)CC1)C2 (stereo not drawn) [Example 247, 6-fluoro-5-(1-(8-isobutyl-8-azabicyclo[3.2.1]octan-3-yl)piperidin-4-yl)-1-methyl-2-(4-(methylsulfonyl)phenyl)-1H-benzo[d]imidazole]
78 | 78 | > 50000 | > 50000 | CC(C)CN1C2CCC1CC(N1CCC(c3cc4nc(-c5ccc(S(C)(=O)=O)cc5)n(C)c4cc3F)CC1)C2 (stereo not drawn) [Example 248, 6-fluoro-5-(1-(8-isobutyl-8-azabicyclo[3.2.1]octan-3-yl)piperidin-4-yl)-1-methyl-2-(4-(methylsulfonyl)phenyl)-1H-benzo[d]imidazole]
49 | 49 | 30700 | > 50000 | COCCN1C2CCC1CC(N1CCC(c3cc4nc(-c5ccc(S(C)(=O)=O)cc5)n(C)c4cc3F)CC1)C2 (stereo not drawn) [Example 257, 6-fluoro-5-(1-(8-(2-methoxyethyl)-8-azabicyclo[3.2.1]octan-3-yl)piperidin-4-yl)-1-methyl-2-(4-(methylsulfonyl)phenyl)-1H-benzo[d]imidazole]
100 | 100 | 18800 | > 50000 | COCCN1C2CCC1CC(N1CCC(c3cc4nc(-c5ccc(S(C)(=O)=O)cc5)n(C)c4cc3F)CC1)C2 (stereo not drawn) [Example 258, 6-fluoro-5-(1-(8-(2-methoxyethyl)-8-azabicyclo[3.2.1]octan-3-yl)piperidin-4-yl)-1-methyl-2-(4-(methylsulfonyl)phenyl)-1H-benzo[d]imidazole]
